{"source": "patent US20260258333A1", "about": "“MULTI-ORGAN \"BODY ON A CHIP\" APPARATUS UTILIZING A COMMON MEDIA” (Wake Forest University Health Sciences, priority 2016, published 2026)", "key": {"[1]": {"conditions": "marketed use in patients; cited from earlier work"}, "[2]": {"system": "cardiac organoids, 2D iPS-derived cardiomyocytes, 2D C2C12", "test": "ATP activity, 3D cardiac organoids versus 2D iPS cardiomyocyte and 2D C2C12 cultures", "text": "(§4) Comparison of ATP activity in response to drug screens of FDA-recalled drugs between 3D liver and cardiac organoids, 2D hepatocyte and cardiomyocyte cultures, and 2D HepG2 and C2C12 cell line cultures. Panels a-d) ATP activity of liver organoids, 2D primary human hepatocytes, and 2D hepG2 cell line cultures in response to panel a) troglitazone, panel b) mibefradil, panel c) bromfenac, and panel d) tielinic acid. Panels e-i) ATP activity of cardiac organoids, 2D iPS-derived cardiomyocytes, and 2D C2C12 cell line cultures in response to panel e) astemizole, panel f) pergoglide, panel g) terodiline, panel h) rofecoxib, and panel i) valdecoxib. Comparisons between groups were normalized to the no drug baseline ATP activity levels. Statistical significance: *p<0.05, 3D organoids versus both 2D cultures; #p<0.05, 2D hepatocytes/cardiomyocytes versus both 3D organoids and 2D cell lines; $ p<0.05, 2D cell line versus both 3D organoids and 2D hepatocytes/cardiomyocytes.\n(§5) In comparison to 3D organoid systems, we also screened these drugs using 2D primary hepatocyte and iPS cardiomyocyte cultures, and 2D hepg2 hepatoma cells and C2C12 myoblast cultures. […] In order to allow comparisons between the different cell model form factors, which employed different numbers of cells (liver organoids—1500; cardiac organoids—2500; 2D hepatocytes—20000; 2D cardiomyocytes—12500; HepG2 and C2C12 cultures—20000), ATP levels were normalized to no drug baseline levels."}, "[3]": {"system": "liver, cardiac, lung, testis, and brain organoids", "experimental": "Aim of Experiment: To assess dependence of multi organoid toxicity on liver organoid metabolic function.\nAt this point, the liver modules were removed from half of the platforms. Capecitabine (20 μM) was administered to all platforms after which viability was assessed through live/dead staining or cardiac beating behavior after 7 days of exposure (day 14 of total study)."}, "[4]": {"system": "liver, cardiac, lung, testis, and brain organoids", "remark": "listed apart in the source", "experimental": "A microfluidic platform having a miniaturized footprint and fluid volume was prepared and it was assessed whether the same complex drug studies are possible on this platform.\nAs with the full-scale platform described in Example 4, five tissue constructs were initiated containing liver, cardiac, lung, testis, and brain organoids and maintained for 7 days prior to the start of the drug study. At this point, the liver modules were removed from half of the platforms. Capecitabine (20 uM) was administered to all platforms after which viability was assessed through live/dead staining or cardiac beating behavior after 7 days of exposure (day 14 of total study)."}, "[5]": {"system": "liver organoids, 2D primary human hepatocytes, 2D HepG2", "test": "ATP activity, 3D liver organoids versus 2D hepatocyte and 2D HepG2 cultures", "format": "cell-based", "conditions": "ATP normalized to no drug baseline", "text": "as §4, §5"}, "[6]": {"system": "cardiac organoids", "method": "FIG. 14. […] Panel a) Beating output under baseline conditions, from which beating rate is determined. Panels b-e) Change in cardiac organoid beat rate resulting from exposure to panel b) isoproterenol, or panel c) quinidine. Panels d-e) Cardiac organoid response to epinephrine and propranolol.\nFIG. 19. Assessment of cardiac organoid beating kinetics in response to panel a) astemizole, panel b) pergoglide, and panel c) terodiline.\nIt should be noted that most drugs that are recalled for causing cardiac toxicity are not actually recalled due to cardiac cell death, but rather for causing changes in cardiac function, such as beating kinetics. While 2D cardiomyocyte cultures can maintain beating activity, consistency and reproducibility can be difficult to maintain. […] These facts make it more difficult to compare beating kinetics between these cell model types."}, "[7]": {"system": "cardiac organoids", "from_the_text": "(§1) In the human body, organs interact with one another in complex ways. […] The modular nature of the fluidic system was employed to construct such a platform. Real-time visual monitoring of cardiac organoids was achieved using an onboard LED and camera system that was customized to integrate with the cardiac construct microreactor housing (FIG. 6, panel a) ^32. This system allowed real time video capture (FIG. 6, panel b). Using custom written MatLab code with a series of MatLab functions, moving pixels in each frame were determined against time, generating a binary representation of beat propagation (FIG. 6, panel c) and plots visualizing beating rates.\n(§2) Effects of epinephrine and propranolol were first tested independently with a cardiac-only system or the tandem system, before being tested jointly in both systems.\n(§3) Next, the interplay between both drugs in the cardiac-only and tandem systems was assessed. […] Beating plots for each condition are depicted in FIG. 6, panels f-i.", "remark": "listed apart in the source"}, "[8]": {"system": "cardiac organoids downstream of liver construct", "from_the_text": "as §1, §2, §3"}, "[9]": {"system": "cardiac organoids, 2D iPS-derived cardiomyocytes, 2D C2C12", "text": "as §4, §5"}, "[10]": {"system": "cardiac organoids", "conditions": "preliminary results, FIG. 22", "experimental": "Following compound exposures, organoids were assessed for viability with LIVE/DEAD staining or ATP activity."}, "[11]": {"system": "liver organoids", "test": "Liver on a chip: acetaminophen toxicity and N-acetyl-L-cysteine countermeasure", "format": "cell-based, human", "conditions": "for albumin and urea output into media: APAP 1 or 10 mM, NAC 20 mM with 10 mM APAP", "method": "FIG. 13. […] Viability as determined by LIVE/DEAD staining on day 14. Organoids were exposed to panel a) a 0 mM APAP control, panel b) 1 mM APAP, panel c) 10 mM APAP, or panel d) 10 mM APAP with 20 mM N-acetyl-L-cysteine. Green—Calcein AM-stained viable cells; Red—Ethidium homodimer-stained dead cells. […] Quantification of panel e) human albumin, panel f) urea, panel g) lactate dehydrogenase, and panel h) alpha-GST. […] Statistical significance: *p<0.05 between control and APAP; # p<0.05 APAP+NAC and APAP."}, "[12]": {"system": "liver organoids", "test": "LIVE/DEAD staining of 3D liver organoids, FDA-recalled drug screen", "format": "cell-based, human", "conditions": "increasing drug concentration (troglitazone 0-3 μM, mibefradil 0-100 μM)", "from_the_text": "Unfortunately, many drugs have made it through preclinical studies and clinical trials, after which they existed on the market, for years in some cases, before being recalled by the Food and Drug Administration (FDA) for having toxic effects in humans. […] These include liver toxins troglitazone, mibefradil, bromfenac, and tienilic acid, as well as cardiac toxins, astemizole, pergoglide, terodiline, rofecoxib, and valdecoxib."}, "[13]": {"system": "vascular endothelium", "conditions": "confluent monolayers, 100 μM histamine from 20 min, at 45 min; 50-90 RFUs before histamine", "experimental": "New vascular modules were prepared with either fully confluent endothelial layers or non-confluent layers. For this experiment, liver organoids were immobilized in liver-specific bioink, as described, in the bottom chamber of the modules (FIG. 3, panel f). These were imaged in parallel to the mass transport experiment by macro-confocal microscopy, showing the endothelium on the semi-porous membrane (membrane not visible) and the 3D liver organoid below (FIG. 3, panel g). Importantly, for the mass transport experiment, the bioink also contained a soluble fluorescent dye consisting of soluble 15 kDa gelatin conjugated with Alexa Fluor 594 maleimide tags in media. Upon addition of the liver organoids, bioink, and dye in the bottom chamber of the device, devices were sealed, and experiments were initiated. Modules were maintained under 25 μL/min flow with normal media coming from a media reservoir, during which aliquots from the outlet ports were collected every 5 minutes. […] Aliquots were analyzed following the experiment for fluorescent intensity."}, "[14]": {"system": "vascular endothelium (human umbilical vein endothelial cells)", "conditions": "100 μM histamine, constant for 10 minutes; normal media about 0.54 kΩ", "text": "The goal of our work was to develop a highly functional microfluidic perfusion-driven six-tissue body-on-a-chip system, containing representations of liver, heart, vasculature, lung, testes, and colon (FIG. 1, panels A-B). Importantly, these individual tissue types would be constructed in modular microfluidic hardware devices, or microreactors (FIG. 1, panel B), formed by conventional polydimethyl-siloxane (PDMS) soft lithography and molding, ^11,30,31 allowing simple “plug and play” capabilities for platform initialization. […] Because of the specific individual requirements of each type of tissue model, a toolbox of biofabrication techniques was employed to create each tissue model (FIG. 1, panels C-E). Briefly, using hanging drop methodology, spherical liver organoids were formed with primary human hepatocytes, stellate cells, and Kupffer cells, spherical cardiac organoids and testes organoids were formed using human induced pluripotent stem (iPS) cells. These spherical organoids were then bioprinted (FIG. 7) into the microreactors using a liver ECM-derived bio-ink, a fibrin and gelatin bio-ink, and a hyaluronic acid (HA) and gelatin bio-ink, employing crosslinking of the hydrogel bio-inks to immobilize the organoids as larger hydrogel-organoid constructs within the perfusion system. […]"}}, "note": "Where two headings read alike, the source gives them in different places."}
{"compound": "CS(=O)(=O)c1ccc(C2=C(c3ccccc3)C(=O)OC2)cc1", "note": "[Rofecoxib]", "values": [{"measurement": "Site of Primary Toxicity", "setting": "[1]", "value": "Heart"}, {"measurement": "sensitivity by ATP activity, 2D cardiomyocyte cultures compared to 3D organoids and 2D C2C12 cultures", "setting": "[2]; only at low to medium drug concentrations", "value": "increased sensitivity"}]}
{"compound": "CCCCCOC(=O)Nc1nc(=O)n([C@@H]2O[C@H](C)[C@@H](O)[C@H]2O)cc1F", "note": "[capecitabine]", "values": [{"measurement": "metabolism of the prodrug", "setting": "[3]", "value": "this metabolism does not occur"}, {"measurement": "metabolism of the prodrug", "setting": "[3]; human, 7 days, 20 μM", "value": "metabolized into the toxic drug 5-FU"}, {"measurement": "metabolism of the prodrug", "setting": "[4]", "value": "this metabolism does not occur"}, {"measurement": "metabolism of the prodrug", "setting": "[4]; human, 7 days, 20 uM", "value": "metabolized into the toxic drug 5-FU"}]}
{"compound": "Nc1c(CC(=O)O)cccc1C(=O)c1ccc(Br)cc1", "note": "[Bromfenac]", "values": [{"measurement": "Site of Primary Toxicity", "setting": "[1]", "value": "Liver"}, {"measurement": "sensitivity by ATP activity, 3D organoids and 2D hepatocyte cultures in comparison to 2D HepG2 cultures", "setting": "[5]", "value": "slightly more resistant"}]}
{"compound": "CNC[C@H](O)c1ccc(O)c(O)c1", "note": "[epinephrine]", "values": [{"measurement": "epinephrine concentration at which beat rate increase reaches a plateau", "setting": "[6]", "value": "≥ 5", "unit": "µM"}, {"measurement": "dose dependent increase in beat rate", "setting": "[6]; increasing epinephrine concentration", "value": "1 to 2", "unit": "fold"}, {"measurement": "increase in beating rate", "setting": "[7]; epinephrine only, 0.5 μM", "value": "~ 40%"}, {"measurement": "increase in cardiac BPM after epinephrine", "setting": "[7]; experimental controls, no propranolol prior to epinephrine", "value": 1.5, "unit": "fold"}, {"measurement": "increase in BPM after epinephrine", "setting": "[8]; Group 2, liver component present, 0.1 μM propranolol then 0.5 μM epinephrine", "value": 1.25, "unit": "fold"}, {"measurement": "response relative to control epinephrine-only response", "setting": "[8]; Group 2, liver organoids, propranolol then epinephrine", "value": "approximately 50%"}, {"measurement": "restoration of the epinephrine-induced increase in beat rate", "setting": "[8]; Group 2 conditions with 2D hepatocyte culture (1-2 million cells) in place of 3D liver organoids", "value": "failed to achieve any restoration"}, {"measurement": "increase in beating rate", "setting": "[8]; epinephrine only, 0.5 μM, liver component present, p<0.05", "value": "~30", "unit": "%"}]}
{"compound": "COc1ccc(CCN2CCC(Nc3nc4ccccc4n3Cc3ccc(F)cc3)CC2)cc1", "note": "[Astemizole]", "values": [{"measurement": "Site of Primary Toxicity", "setting": "[1]", "value": "Heart"}, {"measurement": "sensitivity by ATP activity, 3D cardiac organoids compared to the 2D systems", "setting": "[9]", "value": "significantly more sensitive"}, {"measurement": "beating kinetics of 3D cardiac organoids", "setting": "[6]", "value": "detrimental changes in beating kinetics"}]}
{"compound": "Cc1onc(-c2ccccc2)c1-c1ccc(S(N)(=O)=O)cc1", "note": "[Valdecoxib]", "values": [{"measurement": "Site of Primary Toxicity", "setting": "[1]", "value": "Heart"}, {"measurement": "sensitivity by ATP activity, 2D cardiomyocyte cultures compared to 3D organoids and 2D C2C12 cultures", "setting": "[9]", "value": "increased sensitivity"}]}
{"compound": "O=C(O)CNCP(=O)(O)O", "note": "[glyphosate]", "values": [{"measurement": "ATP activity", "setting": "[10]", "value": "decreases in ATP activity"}]}
{"compound": "[Cl][Pb][Cl]", "note": "[lead, lead chloride]", "values": [{"measurement": "ATP activity", "setting": "[10]", "value": "decreases in ATP activity"}]}
{"compound": "CC(=O)N[C@@H](CS)C(=O)O", "note": "[NAC, N-acetyl-L-cysteine]", "values": [{"measurement": "viability, LIVE/DEAD staining on day 14", "setting": "[11]; 10 mM APAP with 20 mM N-acetyl-L-cysteine", "value": "rescued"}, {"measurement": "albumin and urea output into media", "setting": "[11]", "value": "decreases this reduction in secretion"}]}
{"compound": "Cc1c(C)c2c(c(C)c1O)CCC(C)(COc1ccc(CC3SC(=O)NC3=O)cc1)O2", "note": "(centres unmarked) [Troglitazone]", "values": [{"measurement": "Site of Primary Toxicity", "setting": "[1]", "value": "Liver"}, {"measurement": "cell death, LIVE/DEAD", "setting": "[12]", "value": "increases in cell death"}]}
{"compound": "CC(CC(c1ccccc1)c1ccccc1)NC(C)(C)C", "note": "(centres unmarked) [Terodiline]", "values": [{"measurement": "Site of Primary Toxicity", "setting": "[1]", "value": "Heart"}, {"measurement": "sensitivity by ATP activity, 3D cardiac organoids compared to the 2D systems", "setting": "[2]; only at the highest concentration of 100 μM", "value": "slightly more sensitive"}, {"measurement": "beating kinetics of 3D cardiac organoids", "setting": "[6]", "value": "detrimental changes in beating kinetics"}]}
{"compound": "COCC(=O)O[C@]1(CCN(C)CCCc2nc3ccccc3[nH]2)CCc2cc(F)ccc2[C@@H]1C(C)C", "note": "[Mibefradil]", "values": [{"measurement": "Site of Primary Toxicity", "setting": "[1]", "value": "Liver"}, {"measurement": "sensitivity by ATP activity, 3D organoids and 2D hepatocyte cultures in comparison to 2D HepG2 cultures", "setting": "[5]", "value": "more sensitive"}, {"measurement": "cell death, LIVE/DEAD", "setting": "[12]", "value": "increases in cell death"}]}
{"compound": "O=C(O)COc1ccc(C(=O)c2cccs2)c(Cl)c1Cl", "note": "[Tienilic Acid]", "values": [{"measurement": "Site of Primary Toxicity", "setting": "[1]", "value": "Liver"}, {"measurement": "sensitivity by ATP activity, 3D organoids versus both 2D systems", "setting": "[5]", "value": "did not experience significantly different responses"}]}
{"compound": "CCCN1C[C@H](CSC)C[C@@H]2c3cccc4[nH]cc(c34)C[C@H]21", "note": "[Pergoglide]", "values": [{"measurement": "Site of Primary Toxicity", "setting": "[1]", "value": "Heart"}, {"measurement": "sensitivity by ATP activity, 3D cardiac organoids compared to the 2D systems", "setting": "[9]", "value": "significantly more sensitive"}, {"measurement": "beating kinetics of 3D cardiac organoids", "setting": "[6]", "value": "detrimental changes in beating kinetics"}]}
{"compound": "CC(C)NCC(O)COc1cccc2ccccc12", "note": "(centres unmarked) [propranolol]", "values": [{"measurement": "beating rate after administration of 5 μM epinephrine", "setting": "[6]; initial incubation with propranolol 0 to 20 μM", "value": "dose dependent decrease in beating rate"}, {"measurement": "effect of propranolol on response to 0.5 μM epinephrine", "setting": "[7]; Group 1, no liver organoids, 0.1 μM propranolol first", "value": "successfully blocked the beta-adrenergic effects"}, {"measurement": "decrease in beating rate", "setting": "[7]; propranolol only, 0.1 μM, p<0.05", "value": "~ 10%"}, {"measurement": "change in beating rate", "setting": "[8]; propranolol only, 0.1 μM, liver construct present", "value": "no decrease in beating rate"}]}
{"compound": "CC(=O)Nc1ccc(O)cc1", "note": "[APAP, acetaminophen]", "values": [{"measurement": "albumin and urea output into media", "setting": "[11]", "value": "negatively affected"}, {"measurement": "LDH and alpha-GST in media", "setting": "[11]; APAP treatment", "value": "elevated levels"}]}
{"compound": "O=[N+]([O-])[O-].[Tl+]", "note": "[thallium, thallium nitrate]", "values": [{"measurement": "ATP activity", "setting": "[10]", "value": "decreases in ATP activity"}]}
{"compound": "NCCc1c[nH]cn1", "note": "[histamine]", "values": [{"measurement": "fluorescent intensity of outlet aliquots (dye transfer)", "setting": "[13]", "value": "~200", "unit": "RFUs"}, {"measurement": "resistance across endothelium layers (TEER)", "setting": "[14]", "value": "approximately 0.4 kΩ"}]}
